Reference: article PMC8583042, “New Hybrid Compounds Combining Fragments of Usnic Acid and Thioether Are Inhibitors of Human Enzymes TDP1, TDP2 and PARP1” (International Journal of Molecular Sciences, 2021)
Like-named read-outs stand apart in the source and are kept apart here.

Experiments:
[1] = EZ4U colorimetric cytotoxicity test, HeLa; type: cell-based, human; details: human, HeLa cells; intrinsic cytotoxicity, compound alone, 3 days
Excerpt: The low intrinsic cytotoxicity of the additional drug component in the clinically used anticancer cocktails with traditional drugs is very important for treatment. This approach in chemotherapy can reduce the potential resulting toxic load on the body in the case of a combined action of these inhibitors on the activity of several targets. […] The effects of the tested compounds on cell survival are shown on Figure 4 and the CC50 values for three cell lines are shown in Table 1. The intrinsic cytotoxicity of a number of the studied compounds is quite high, namely, they have close IC50 values against the TDP1 and CC50 values on one or several studied cell lines. Most of the compounds generally were more toxic for the HEK293FT and HeLa cell lines than for the HEK293A cell line (Table 1 and Figure 4). The cytotoxicity of the three leader compounds, 7g, 10a, and 7h, was quite high. […] Compound 10b was one of the least toxic among the ten tested compounds.
Cytotoxicity of the compounds was examined against human cell lines HEK293A (human embryonic kidney)—WT, TDP1 deficient (Tdp1-/-), PARP1 deficient (PARP1-/-), and HeLa (cervical cancer) using an EZ4U colorimetric test (Biomedica, Vienna, Austria). The HEK293A cell line was obtained from Thermo Fisher Scientific (Waltham, MA, USA), and the HeLa cell line was obtained from the Russian Cell Culture Collection (RCCC) Institute of Cytology RAS, St. Petersburg, Russia. The cells were grown in DMEM/F12 medium (Gibco, Thermo Fisher Scientific, Waltham, MA, USA), with 1x GlutaMAX (Gibco, Thermo Fisher Scientific, Waltham, MA, USA), 50 IU/mL penicillin, 50 μg/mL streptomycin (MP Biomedicals), and in the presence of 10% fetal bovine serum (Biolot, Saint-Petersburg, Russia) in a 5% CO2 atmosphere. Cells were grown in the presence of 1% DMSO in the control wells. After the formation of a 30–50% monolayer, the tested compounds were added to the medium, and the cell culture was monitored for 3 days. The values were normalized to their own control in each case. At least three independent experiments were carried out. The 50% cytotoxic concentration (CC50) was defined as the compound concentration that reduced the cell viability by 50% when compared to the untreated controls. The compound concentration that caused 50% cell growth inhibition was determined using OriginPro 8.6.0 software (OriginLab, Northampton, MA, USA). The measurements were carried out in three independent experiments.

TDP1 = target: T1, TDP1 (Homo sapiens, UniProt Q9NUW8); assay: Real-time fluorescence assay of TDP1 activity; type: biochemical
T1 construct: made in house; host or cells: E. coli
Excerpt: We tested UA and all 14 newly synthesized UA derivatives for their TDP1 inhibitory properties by measuring their IC50 values using a real-time fluorescent assay. […] Compounds 10a,b are sulfoxide analogs of 7g,h.
Human recombinant tyrosyl-DNA phosphodiesterase 1 (TDP1) and human recombinant poly(ADP-ribose)-polymerase1 (PARP1) were expressed in the E. coli system and purified as described.
The biosensor (5′-[FAM] AAC GTC AGGGTC TTC C [BHQ]-3′) was synthesized in the Laboratory of Nucleic Acid Chemistry at the Institute of Chemical Biology and Fundamental Medicine (Novosibirsk, Russia) and was used for TDP1 enzyme activity real-time fluorescence detection. The reaction mixture (200 μL) contained a TDP1 reaction buffer (50 mM Tris-HCl, pH 8.0, 50 mM NaCl, and 7 mM β-mercaptoethanol), 50 nM oligonucleotide, varied concentrations of the tested compounds, and purified TDP1 in a final concentration 1.5 nM. The reaction mixtures were incubated at a constant temperature of 26 °C in a POLARstar OPTIMA fluorimeter (BMG LABTECH, GmbH, Ortenberg, Germany). Fluorescence intensity was measured (Ex485/Em520 nm) every 1 min for 10 min. The average values of the half maximal inhibitory concentration (IC50) were determined using an eleven-point concentration response curve and calculated using MARS Data Analysis 2.0 (BMG LABTECH). The 50% inhibitory concentration (IC50) was defined as the concentration of the compound that inhibited 50% of the enzyme activity when compared to the untreated controls. At least three independent experiments were carried out to obtain the IC50 values. To determine the kinetic parameters of the TDP1 enzymatic reaction, the apparent maximum rate of enzymatic reaction (Vmax), Michaelis constant (KM), possible inhibition mechanism, and steady-state kinetic experiments were carried out at 5 fixed concentrations of the substrate, with variation in the inhibitor concentrations. The standard reaction mixtures (200 μL) contained reaction buffer components; 50 nM, 100 nM, 200 nM, 500 nM, or 1000 nM substrate; an inhibitor; and 1.5 nM recombinant human TDP1. The initial kinetic curves were obtained in three independent experiments and statistically processed in OriginPro 8.6.0 (OriginLab, Northampton, MA, USA).

T1 sequence (Q9NUW8 whole entry): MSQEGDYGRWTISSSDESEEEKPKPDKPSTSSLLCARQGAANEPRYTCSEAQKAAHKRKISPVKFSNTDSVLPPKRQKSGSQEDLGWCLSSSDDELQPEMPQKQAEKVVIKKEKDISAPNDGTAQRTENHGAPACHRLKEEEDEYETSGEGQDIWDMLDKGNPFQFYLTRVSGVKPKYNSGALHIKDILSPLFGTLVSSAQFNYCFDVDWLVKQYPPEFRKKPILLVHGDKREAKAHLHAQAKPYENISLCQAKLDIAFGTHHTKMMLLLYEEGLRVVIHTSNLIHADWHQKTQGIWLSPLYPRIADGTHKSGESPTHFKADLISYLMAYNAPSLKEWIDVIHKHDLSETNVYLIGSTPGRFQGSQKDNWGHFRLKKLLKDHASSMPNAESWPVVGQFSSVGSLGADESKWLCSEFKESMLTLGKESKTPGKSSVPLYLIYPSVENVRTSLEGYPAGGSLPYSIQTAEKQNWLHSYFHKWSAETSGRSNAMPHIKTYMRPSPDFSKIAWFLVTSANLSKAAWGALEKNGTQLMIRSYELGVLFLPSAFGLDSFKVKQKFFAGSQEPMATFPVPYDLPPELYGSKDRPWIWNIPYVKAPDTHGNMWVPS

| Compound | CC50 at 3 days [1] [µM] | IC50 (TDP1; real-time fluorescent assay, 1.5 nM TDP1, 50 nM oligonucleotide, read-out: IC50 (TDP1)) [µM] | IC50 (TDP1) [µM] | TDP1 inhibition (in words) (TDP1; in the concentration range of the derivatives' IC50) |
| --- | --- | --- | --- | --- |
| CC(=O)C1=C(O)C=C2Oc3c(C(=O)C[S+]([O-])c4nc5ccccc5s4)c(O)c(C)c(O)c3[C@@]2(C)C1=O (stereo partly drawn) [10a, (2R)-4-acetyl-10-[2-(1,3-benzothiazole-2-sulfinyl)acetyl]-5,11,13-trihydroxy-2,12-dimethyl-8-oxatricyclo[7.4.0.0^2,7]trideca-1(13),4,6,9,11-pentaen-3-one] | 15 ± 1 | 2.1 ± 0.2 |  |  |
| CC(=O)c1c(O)c(C)c(O)c2c1OC1=CC(=O)C(C(C)=O)C(=O)C12C (centres unmarked) [UA, usnic acid] | 20 ± 10 |  | > 50 | does not inhibit TDP1 |
